{"source": "patent US20240116875A1", "about": "“RATIONAL DESIGN, OPTIMIZATION, AND BIOLOGICAL EVALUATION OF NOVEL MEK4 INHIBITORS AGAINST PANCREATIC ADENOCARCINOMA” (NORTHWESTERN UNIVERSITY, priority 2022, published 2024)", "key": {"MEK7": {"biological_target": "T1, MEK7 (Homo sapiens, UniProt O14733)", "T1 construct": "purchased Carna Biosciences", "T1 sequence (O14733 1-419)": "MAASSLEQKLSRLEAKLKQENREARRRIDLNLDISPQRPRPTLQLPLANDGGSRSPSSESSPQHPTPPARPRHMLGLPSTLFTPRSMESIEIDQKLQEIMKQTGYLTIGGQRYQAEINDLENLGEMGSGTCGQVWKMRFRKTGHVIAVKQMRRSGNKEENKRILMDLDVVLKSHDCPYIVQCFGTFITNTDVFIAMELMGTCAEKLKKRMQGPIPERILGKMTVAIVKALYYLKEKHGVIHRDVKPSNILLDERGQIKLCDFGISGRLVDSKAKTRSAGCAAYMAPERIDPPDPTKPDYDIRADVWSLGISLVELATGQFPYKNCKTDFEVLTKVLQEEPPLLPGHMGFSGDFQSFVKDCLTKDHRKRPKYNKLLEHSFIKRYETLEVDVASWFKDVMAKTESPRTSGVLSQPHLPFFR", "experiment": "ADP-Glo kinase activity assay, MEK7", "assay_type": "biochemical", "protocol": "The compounds were then evaluated both in vitro and in a cellular system. When studying kinase inhibitors, there are a multitude of ways to evaluate selectivity across kinases.\nProcedure for a 5 μL Kinase reaction using the ADP-Glo Kinase Assay Kit from Promega. Staurosporine was used as the positive control, and DMSO as the negative control. Activity of recombinant active full-length human MEK4 (Carna Biosciences) was measured using the ADP-Glo assay with recombinant full-length human p38α (MAPK14). Kinase reactions with MEK7 (Carna Biosciences) were done at the same concentration and amounts with recombinant full-length human p38α (MAPK14).\nFor each well, 4 ng of MEK4 and 600 ng of p38α in Kinase buffer (CST) were used, and 1 μL of this mixture was dispensed per well.\nInhibitor was prepared in a DMSO solution. A dose response dilution was done in a 384-well Echo transfer plate. […] This mixture was allowed to incubate for 30 minutes at room temperature.\nUsing a Mantis, 1 μL, of an 8 μM ATP solution was added to each well, and the plate was allowed to incubate for another 1 hour at room temperature. […] All experiments were done in triplicate on the plate, and at least in one separate technical duplicate."}, "ERK1": {"biological_target": "T2, ERK1 (Homo sapiens, UniProt P27361)", "T2 construct": "purchased Eurofins DiscoverX scanEDGE", "T2 sequence (P27361 whole entry)": "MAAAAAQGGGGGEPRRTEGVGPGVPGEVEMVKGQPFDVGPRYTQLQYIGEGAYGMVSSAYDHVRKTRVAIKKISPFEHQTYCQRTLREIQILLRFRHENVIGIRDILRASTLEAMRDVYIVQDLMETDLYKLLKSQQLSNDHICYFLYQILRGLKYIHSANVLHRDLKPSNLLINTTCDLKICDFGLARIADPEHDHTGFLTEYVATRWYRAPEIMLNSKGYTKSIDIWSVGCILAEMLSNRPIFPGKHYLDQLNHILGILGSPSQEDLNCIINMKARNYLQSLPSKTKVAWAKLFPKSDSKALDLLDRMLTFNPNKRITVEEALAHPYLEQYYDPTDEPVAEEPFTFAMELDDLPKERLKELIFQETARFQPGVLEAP", "experiment": "scanEDGE DiscoverX kinome-wide scan, ERK1", "assay_type": "binding", "settings": "10 μM", "from_the_text": "(§1) To compare our compounds to the rest of the MEK inhibitors discovered thus far, we turned to the DiscoverX platform (KINOMEscan®, Eurofins DiscoverX), a widely used assay for comparing selectivity across the kinome. The DiscoverX platform reports the thermodynamic Kd in order to facilitate direct comparison of inhibitor affinity across the kinome, independent of ATP concentration."}, "RAF": {"biological_target": "T3, RAF (Homo sapiens, UniProt P04049)", "T3 construct": "purchased Eurofins DiscoverX scanEDGE", "T3 sequence (P04049 whole entry)": "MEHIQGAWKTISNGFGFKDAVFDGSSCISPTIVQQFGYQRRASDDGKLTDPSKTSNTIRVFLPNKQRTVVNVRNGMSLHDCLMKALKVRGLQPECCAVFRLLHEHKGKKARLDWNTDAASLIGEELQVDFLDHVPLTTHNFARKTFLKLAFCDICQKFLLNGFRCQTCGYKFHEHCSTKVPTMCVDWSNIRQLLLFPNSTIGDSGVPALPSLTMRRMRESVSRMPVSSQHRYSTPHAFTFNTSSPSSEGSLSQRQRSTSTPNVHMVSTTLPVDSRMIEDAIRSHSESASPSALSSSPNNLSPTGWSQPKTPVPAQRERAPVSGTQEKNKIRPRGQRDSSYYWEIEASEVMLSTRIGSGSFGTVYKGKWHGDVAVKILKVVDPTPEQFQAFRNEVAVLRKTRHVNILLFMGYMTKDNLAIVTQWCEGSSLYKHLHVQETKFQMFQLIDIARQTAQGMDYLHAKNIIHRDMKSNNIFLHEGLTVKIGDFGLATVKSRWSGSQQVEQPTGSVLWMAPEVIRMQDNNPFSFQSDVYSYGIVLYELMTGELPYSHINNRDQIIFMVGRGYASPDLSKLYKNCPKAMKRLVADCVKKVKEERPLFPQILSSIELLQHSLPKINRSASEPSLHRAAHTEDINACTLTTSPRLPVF", "experiment": "scanEDGE DiscoverX kinome-wide scan, RAF", "assay_type": "binding", "settings": "10 μM", "from_the_text": "as §1"}, "JNK1/2/3": {"tested_on": "JNK1/2/3", "experiment": "scanEDGE DiscoverX kinome-wide scan, JNK1/2/3", "assay_type": "binding", "settings": "10 μM", "from_the_text": "as §1"}, "[1]": {"experiment": "Log D study (BioDuro-Sundia)", "settings": "pH of 7.4"}, "[2]": {"tested_on": "JNK phosphorylation in CD18 cells", "experiment": "anisomycin-induced JNK phosphorylation, western blotting, CD18", "assay_type": "cell-based, human", "settings": "CD18, anisomycin 45 minutes then compound 5 hours", "protocol": "(§2) HSP90 was used as loading control. The blots are representative of at least three biological replicates.\n(§3) We also examined the effects of these inhibitors on JNK phosphorylation and proliferation of two pancreatic cancer cell lines (CD18 and MiaPaCa2).\n(§4) Human pancreatic cancer cell lines (CD18/HPAF-II and MiaPaCa2) and HEK293T cells were obtained from American Type Culture Collection. All cell lines were cultured according to the manufacturer's protocol. All media contained 10% Fetal Bovine Serum (FBS) and antibiotics (100 U/mL Penicillin and 100 μg/mL Streptomycin).\n(§5) Whole cell extracts of cultured cells were prepared in radioimmunoprecipitation (RIPA) lysis buffer supplemented with phosphatase and protease inhibitors (Calbiochem). Protein concentration was determined by the bicinchoninic acid assay (BCA) (ThermoFisher) and separated by the SDS-PAGE technique. […] Secondary anti-mouse IgG (A4416) and anti-rabbit IgG (A6667) antibodies were purchased from Sigma-Aldrich and used a 1:4000 dilution. Images of blots were acquired on HyBlot ES Autoradiography Film (Thomas Scientific, Swedesboro, NJ, USA) following incubation with SuperSignal West Pico PLUS (ThermoFisher)."}, "[3]": {"tested_on": "JNK phosphorylation in MiaPaCa2 cells", "experiment": "anisomycin-induced JNK phosphorylation, western blotting, MiaPaCa2", "assay_type": "cell-based, human", "settings": "MiaPaCa2, anisomycin 45 minutes then compound 5 hours", "protocol": "as §2, §3, §4, §5"}, "HEK293T cells": {"tested_on": "HEK293T cells", "experiment": "cell proliferation (cell count after 72 hours), HEK293T", "assay_type": "cell-based, human", "settings": "varying doses", "protocol": "After 72 hours, cells were trypsinized, counted, and the cell numbers were normalized against the DMSO treatment. Mean±SD. Graphs are representative of 3 biological replicates. One-way ANOVA; ns, non-significant **, p<0.01 ***, p<0.001.\nas §3, §4"}, "CD18 cells": {"tested_on": "CD18 cells", "experiment": "cell proliferation (cell count after 72 hours), CD18", "assay_type": "cell-based, human", "settings": "CD18, 72 hours, varying doses, single agent", "protocol": "(§6) After 72 hours, cells were trypsinized, counted, and the cell numbers were normalized against the DMSO treatment. Mean±SD. Graphs are representative of 3 biological replicates.\nas §6\n(§7) Cell numbers from different treatments were normalized against the DMSO treatment, and CDI is calculated as follows: CDI=AB/(A×B), with AB being the ratio of the combination groups to control group and A or B being the ratio of the single agent group to the DMSO group. Mean±SEM from 3 biological replicates.\nas §3, §4"}, "MiaPaCa2 cells": {"tested_on": "MiaPaCa2 cells", "experiment": "cell proliferation (cell count after 72 hours), MiaPaCa2", "assay_type": "cell-based, human", "settings": "MiaPaCa2, 72 hours, varying doses, single agent", "protocol": "as §6, §6, §7, §3, §4"}, "[4]": {"tested_on": "phospho-p42/44 MAPK in HEK293T cells", "experiment": "p42/44 MAPK (ERK1/2) phosphorylation, western blotting, HEK293T", "assay_type": "cell-based, human", "settings": "anisomycin pretreatment, compound 100 μM, 5 hours", "protocol": "as §2\nWe next evaluated the effects of our inhibitors on the phosphorylation activity and expression of MEK1/2, MEK3/6, and MEK7. […] We also evaluated the effects on p42/44 MAPK (ERK1/2), which functions downstream of MEK1/2.\nas §5"}, "[5]": {"tested_on": "phospho-p42/44 MAPK in MiaPaCa2 cells", "experiment": "p42/44 MAPK phosphorylation, western blotting, MiaPaCa2", "assay_type": "cell-based, human", "settings": "MiaPaCa2, MEK4 inhibitor 10 μM, 5 hours", "protocol": "The effects of different treatments on phospho-p42/44 MAPK and total p42/44 MAPK expression levels were determined by western blotting. HSP90 was used as loading control. The blots are representative of at least three biological replicates.\nas §5"}, "CYP 1A2": {"biological_target": "CYP 1A2 (Homo sapiens, UniProt P05177)", "sequence (P05177 whole entry)": "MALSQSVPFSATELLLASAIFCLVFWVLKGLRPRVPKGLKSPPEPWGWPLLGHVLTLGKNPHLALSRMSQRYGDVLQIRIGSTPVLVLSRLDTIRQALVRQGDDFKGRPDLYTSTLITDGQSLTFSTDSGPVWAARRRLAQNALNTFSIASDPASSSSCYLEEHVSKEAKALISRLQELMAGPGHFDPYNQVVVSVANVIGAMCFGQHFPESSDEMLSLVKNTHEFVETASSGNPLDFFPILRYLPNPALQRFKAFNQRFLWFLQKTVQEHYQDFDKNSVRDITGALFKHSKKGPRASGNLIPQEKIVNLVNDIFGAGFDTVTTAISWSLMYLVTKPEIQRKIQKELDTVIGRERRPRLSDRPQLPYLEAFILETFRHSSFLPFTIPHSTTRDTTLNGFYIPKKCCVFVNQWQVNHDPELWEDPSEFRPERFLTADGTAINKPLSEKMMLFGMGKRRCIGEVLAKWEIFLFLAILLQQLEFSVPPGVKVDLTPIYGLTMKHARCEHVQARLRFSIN"}, "CYP 2D6": {"biological_target": "CYP 2D6 (Homo sapiens, UniProt P10635)", "sequence (P10635 whole entry)": "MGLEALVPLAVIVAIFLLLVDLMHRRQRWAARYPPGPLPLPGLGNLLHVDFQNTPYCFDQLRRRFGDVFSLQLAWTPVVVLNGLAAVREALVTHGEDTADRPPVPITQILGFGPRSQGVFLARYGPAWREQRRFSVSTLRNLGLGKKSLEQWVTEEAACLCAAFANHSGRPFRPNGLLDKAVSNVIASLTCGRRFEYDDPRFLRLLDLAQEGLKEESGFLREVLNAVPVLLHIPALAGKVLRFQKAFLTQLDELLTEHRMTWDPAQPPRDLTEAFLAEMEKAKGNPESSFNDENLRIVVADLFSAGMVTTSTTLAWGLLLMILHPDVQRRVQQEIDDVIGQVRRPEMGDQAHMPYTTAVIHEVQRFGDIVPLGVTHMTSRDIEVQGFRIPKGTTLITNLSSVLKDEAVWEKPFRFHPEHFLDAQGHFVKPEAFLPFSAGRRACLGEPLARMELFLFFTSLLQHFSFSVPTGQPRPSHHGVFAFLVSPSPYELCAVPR", "experiment": "CYP inhibition, 2D6"}}, "note": "“And” between values parts separate entries of the source, which are not always exact repeats. Identical values can stand only once. “Also recorded” adds a separate entry of the source. Like-named read-outs stand apart in the source and are kept apart here.", "data": [{"compound": "NC(=O)c1ccc(NS(=O)(=O)c2cccc(-c3n[nH]c4cc(F)ccc34)c2)cc1", "note": "[Compound 15o, 4-((3-(6-fluoro-1H-indazol-3-yl)phenyl)sulfonamido)benzamide]", "values": [{"measurement": "IC50", "setting": "MEK7; headline value per compound, read-out: MEK7 IC50", "value": 96, "unit": "nM"}, {"measurement": "IC50", "setting": "MEK7; individual experiment, values in brackets, n=3, read-out: MEK7 IC50 of each experiment (IC50±SEM)", "value": "41 nM and 150 nM"}, {"measurement": "inhibition of ERK1", "setting": "ERK1", "value": "did not inhibit"}, {"measurement": "inhibition of RAF", "setting": "RAF", "value": "did not inhibit"}, {"measurement": "inhibition of JNK1/2/3", "setting": "JNK1/2/3", "value": "did inhibit"}, {"measurement": "log D", "setting": "[1]", "value": 3.22}, {"measurement": "effect on anisomycin-induced JNK phosphorylation", "setting": "[2]", "value": "attenuated anisomycin-induced JNK phosphorylation"}, {"measurement": "effect on anisomycin-induced JNK phosphorylation", "setting": "[3]", "value": "attenuated anisomycin-induced JNK phosphorylation"}, {"measurement": "cell proliferation", "setting": "HEK293T cells", "value": "decreased. HEK293T cell proliferation in a dose-dependent manner"}, {"measurement": "cell proliferation", "setting": "CD18 cells", "value": "decreased proliferation; also recorded: antiproliferative properties"}, {"measurement": "cell proliferation", "setting": "MiaPaCa2 cells", "value": "decreased proliferation; also recorded: antiproliferative properties"}, {"measurement": "effect on p42/44 MAPK phosphorylation after anisomycin", "setting": "[4]", "value": "reversed the effects of anisomycin"}, {"measurement": "effect on p42/44 MAPK phosphorylation", "setting": "[5]", "value": "did not induce p42/44 MAPK phosphorylation"}, {"measurement": "inhibition of CYP 1A2", "setting": "CYP 1A2", "value": "inhibited"}, {"measurement": "inhibition of CYP 2D6", "setting": "CYP 2D6", "value": "low inhibition"}]}]}
